According to patent US20190218226A1, “PRODRUGS OF ANTICANCER AGENTS INDOTECAN AND INDIMITECAN” (Purdue Research Foundation, priority 2016, published 2019):

Tests used:
[1] = test system: HCT-116; experiment: NCI60 antiproliferative screen, colon HCT-116; format: cell-based, human; details: HCT-116, 48 h, sulforhodamine B; read-out: Cytotoxicity (GI50) Colon HCT-116
Summary of the method: (§1)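 After 48 h with compound at five log-spaced levels from 0.01 to 100 μM, cell growth is quantified by sulforhodamine B optical density. Fifty-percent growth inhibition concentrations are interpolated from control-normalised growth versus log10 dose.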

[2] = test system: UACC-62; experiment: NCI60 antiproliferative screen, melanoma UACC-62; format: cell-based, human; details: UACC-62, 48 h, sulforhodamine B; read-out: Cytotoxicity (GI50) melanoma UACC-62
Summary of the method: as §1

[3] = molecular target: T1, Human recombinant Top1 (Homo sapiens, UniProt P11387); experiment: Top1-mediated DNA cleavage assay; format: biochemical; set-up: key to Top 1 Cleavage: 0, no inhibitory activity; +, between 20 and 50% activities; ++, between 50 and 75% activity; +++, between 75 and 95% activity; ++++, equipotent; details: graded relative to 1 μM camptothecin
T1 construct: made in house
T1 sequence (P11387 1-765): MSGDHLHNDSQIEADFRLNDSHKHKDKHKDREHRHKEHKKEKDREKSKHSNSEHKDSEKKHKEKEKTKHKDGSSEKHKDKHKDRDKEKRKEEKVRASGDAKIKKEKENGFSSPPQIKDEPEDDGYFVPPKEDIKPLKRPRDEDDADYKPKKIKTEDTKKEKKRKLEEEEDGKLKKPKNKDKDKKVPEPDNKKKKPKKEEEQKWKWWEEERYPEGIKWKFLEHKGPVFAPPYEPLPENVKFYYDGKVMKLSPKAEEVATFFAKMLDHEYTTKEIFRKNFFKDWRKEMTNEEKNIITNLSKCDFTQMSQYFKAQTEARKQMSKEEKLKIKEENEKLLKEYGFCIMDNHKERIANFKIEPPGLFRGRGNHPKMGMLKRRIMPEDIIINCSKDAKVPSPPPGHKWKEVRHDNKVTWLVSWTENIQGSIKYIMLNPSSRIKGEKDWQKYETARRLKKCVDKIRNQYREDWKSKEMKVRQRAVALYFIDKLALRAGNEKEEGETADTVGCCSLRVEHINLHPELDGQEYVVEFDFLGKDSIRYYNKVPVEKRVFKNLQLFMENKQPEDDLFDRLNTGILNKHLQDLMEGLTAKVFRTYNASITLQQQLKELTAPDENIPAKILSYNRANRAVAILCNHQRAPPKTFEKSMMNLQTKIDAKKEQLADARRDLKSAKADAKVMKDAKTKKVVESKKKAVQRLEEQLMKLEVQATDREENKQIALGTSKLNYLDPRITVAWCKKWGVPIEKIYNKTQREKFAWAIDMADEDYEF
Summary of the method: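 About 2 nM 3′-[32P]-labelled 117-bp DNA incubated with baculovirus-expressed recombinant Top1 at 25 °C for 20 min (Tris pH 7.5, KCl, MgCl2, EDTA, BSA) at four compound concentrations; stopped with 0.5% SDS. Denaturing 20% PAGE, phosphorimaging; cleavage scored semiquantitatively (0 to ++++) against reference compounds.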

[4] = test system: MCF-7; experiment: NCI60 antiproliferative screen, breast MCF-7; format: cell-based, human; details: MCF-7, 48 h, sulforhodamine B; read-out: Cytotoxicity (GI50) breast MCF-7
Summary of the method: as §1

- Top 1 Cleavage [3]: 0
SMILES: COC(=O)CCC(=O)Oc1cc2c(=O)n(CCCN3CCOCC3)c3c(c2cc1OC)C(=O)c1cc2c(cc1-3)OCO2 [Compound 17, 2-Methoxy-6-(3-morpholinopropyl)-5,12-dioxo-6,12-dihydro-5H-[1,3]dioxolo[4′,5′:5,6]indeno[1,2-c]isoquinolin-3-yl Methyl Succinate]
- GI50 [1]: 20 nM
- GI50 [2]: 18 nM
- GI50 [4]: < 10 nM
